Assay results: ChEMBL document CHEMBL3046832, “Synthesis of some sulfonamides, disubstituted sulfonylureas or thioureas and some structurally related variants. A class of promising antitumor agents” (2007)

Key:
Assay type in all cases: functional
MDA-MB-435 = experiment: Cytotoxicity against Homo sapiens (human) MDA-MB-435 cells after 48 hr by SRB assay; conditions: MDA-MB-435, 48 h
M14 = experiment: Cytotoxicity against Homo sapiens (human) M14 cells after 48 hr by SRB assay; conditions: M14, 48 h
U-251 = experiment: Cytotoxicity against Homo sapiens (human) U251 cells after 48 hr by SRB assay; conditions: U-251, 48 h
MCF7 [1] = experiment: Cytotoxicity against Homo sapiens (human) MCF7 cells after 48 hr by SRB assay; conditions: MCF7, 48 h
MDA-MB-231 = experiment: Cytotoxicity against Homo sapiens (human) MDA-MB-231 cells after 48 hr by SRB assay; conditions: MDA-MB-231, 48 h
DU-145 = experiment: Cytotoxicity against Homo sapiens (human) DU145 cells after 48 hr by SRB assay; conditions: DU-145, 48 h
UO-31 = experiment: Cytotoxicity against Homo sapiens (human) UO31 cells after 48 hr by SRB assay; conditions: UO-31, 48 h
PC-3 = experiment: Cytotoxicity against Homo sapiens (human) PC3 cells after 48 hr by SRB assay; conditions: PC-3, 48 h
RXF 393 = experiment: Cytotoxicity against Homo sapiens (human) RXF393 cells after 48 hr by SRB assay; conditions: RXF 393, 48 h
CAKI-1 = experiment: Cytotoxicity against Homo sapiens (human) Caki1 cells after 48 hr by SRB assay; conditions: CAKI-1, 48 h
ACHN = experiment: Cytotoxicity against Homo sapiens (human) ACHN cells after 48 hr by SRB assay
786-0 = experiment: Cytotoxicity against Homo sapiens (human) 786-0 cells after 48 hr by SRB assay; conditions: 786-0, 48 h
[2] = Cytotoxicity against Homo sapiens (human) NCI-ADR-RES cells after 48 hr by SRB assay
SK-OV-3 = experiment: Cytotoxicity against Homo sapiens (human) SKOV3 cells after 48 hr by SRB assay; conditions: SK-OV-3, 48 h
OVCAR-4 = experiment: Cytotoxicity against Homo sapiens (human) OVCAR4 cells after 48 hr by SRB assay; conditions: OVCAR-4, 48 h
OVCAR-3 = experiment: Cytotoxicity against Homo sapiens (human) OVCAR3 cells after 48 hr by SRB assay; conditions: OVCAR-3, 48 h
UACC-62 = experiment: Cytotoxicity against Homo sapiens (human) UACC62 cells after 48 hr by SRB assay; conditions: UACC-62, 48 h
SK-MEL-5 = experiment: Cytotoxicity against Homo sapiens (human) SK-MEL-5 cells after 48 hr by SRB assay; conditions: SK-MEL-5, 48 h
SK-MEL-2 = experiment: Cytotoxicity against Homo sapiens (human) SK-MEL-2 cells after 48 hr by SRB assay; conditions: SK-MEL-2, 48 h
SK-MEL-28 = experiment: Cytotoxicity against Homo sapiens (human) SK-MEL-28 cells after 48 hr by SRB assay; conditions: SK-MEL-28, 48 h
[3] = Cytotoxicity against Homo sapiens (human) breast cancer cells after 48 hr by SRB assay; conditions: Cancer cell lines
[4] = Cytotoxicity against Homo sapiens (human) prostate cancer cells after 48 hr by SRB assay; conditions: Cancer cell lines
[5] = Cytotoxicity against Homo sapiens (human) ovarian cancer cells after 48 hr by SRB assay; conditions: Cancer cell lines
[6] = Cytotoxicity against Homo sapiens (human) melanoma cells after 48 hr by SRB assay; conditions: Melanoma cell
[7] = Cytotoxicity against Homo sapiens (human) CNS cancer cells after 48 hr by SRB assay; conditions: Cancer cell lines
[8] = Cytotoxicity against Homo sapiens (human) non-small cell lung cancer cells after 48 hr by SRB assay; conditions: Cancer cell lines
[9] = Cytotoxicity against Homo sapiens (human) leukemia cells after 48 hr by SRB assay; conditions: Leukemia cell
SF-268 = experiment: Cytotoxicity against Homo sapiens (human) SF268 cells assessed as cellular growth after 48 hr by Alamar blue assay; parameters: concentration or dose not given beside the values
BT-549 = experiment: Cytotoxicity against Homo sapiens (human) BT549 cells after 48 hr by SRB assay; conditions: BT-549, 48 h
T47D = experiment: Cytotoxicity against Homo sapiens (human) T47D cells after 48 hr by SRB assay
SNB-19 = experiment: Cytotoxicity against Homo sapiens (human) SNB19 cells after 48 hr by SRB assay; conditions: SNB-19, 48 h
SF-539 = experiment: Cytotoxicity against Homo sapiens (human) SF539 cells after 48 hr by SRB assay; conditions: SF-539, 48 h
SW-620 = experiment: Cytotoxicity against Homo sapiens (human) SW620 cells after 48 hr by SRB assay; conditions: SW-620, 48 h
KM12 = experiment: Cytotoxicity against Homo sapiens (human) KM12 cells after 48 hr by SRB assay; conditions: KM12, 48 h
HCT-15 = experiment: Cytotoxicity against Homo sapiens (human) HCT15 cells after 48 hr by SRB assay; conditions: HCT-15, 48 h
HT-29 = experiment: Cytotoxicity against Homo sapiens (human) HT-29 cells after 48 hr by SRB assay; conditions: HT-29, 48 h
HCC 2998 = experiment: Cytotoxicity against Homo sapiens (human) HCC2998 cells after 48 hr by SRB assay; conditions: HCC 2998, 48 h
NCI-H522 = experiment: Cytotoxicity against Homo sapiens (human) NCI-H522 cells after 48 hr by SRB assay; conditions: NCI-H522, 48 h
COLO 205 = experiment: Cytotoxicity against Homo sapiens (human) COLO205 cells after 48 hr by SRB assay; conditions: COLO 205, 48 h
NCI-H23 = experiment: Cytotoxicity against Homo sapiens (human) NCI-H23 cells after 48 hr by SRB assay; conditions: NCI-H23, 48 h
[10] = Cytotoxicity against Homo sapiens (human) NCI-H322 cells after 48 hr by SRB assay; conditions: NCI-H322, 48 h
NCI-H460 = experiment: Cytotoxicity against Homo sapiens (human) NCI-H460 cells after 48 hr by SRB assay; conditions: NCI-H460, 48 h
EKVX = experiment: Cytotoxicity against Homo sapiens (human) EKVX cells after 48 hr by SRB assay
RPMI-8226 = experiment: Cytotoxicity against Homo sapiens (human) RPMI8226 cells after 48 hr by SRB assay; conditions: RPMI-8226, 48 h
MCF7 [11] = experiment: Cytotoxicity against Homo sapiens (human) MCF7 cells assessed as cellular growth after 48 hr by Alamar blue assay; parameters: concentration or dose not given beside the values
IGROV-1 = experiment: Cytotoxicity against Homo sapiens (human) IGROV1 cells after 48 hr by SRB assay; conditions: IGROV-1, 48 h

Compound: O=S(=O)(/N=c1\scc(-c2ccccc2)n1-c1ccccc1)c1ccc(N2N=C3c4ccccc4CC3C2c2cccs2)cc1 (stereo unspecified)
- GI50 (MDA-MB-435): 38.7 µM
- GI50 (M14): 81.5 µM
- GI50 (U-251): 31.2 µM
- GI50 (MCF7 [1]): 29.1 µM
- GI50 (MDA-MB-231): 52.1 µM
- GI50 (DU-145): > 100 µM
- GI50 (UO-31): > 100 µM
- GI50 (PC-3): 75 µM
- GI50 (RXF 393): 98.2 µM
- GI50 (CAKI-1): 73 µM
- GI50 (ACHN): 42.5 µM
- GI50 (786-0): 64.2 µM
- GI50 [2]: > 100 µM
- GI50 (SK-OV-3): > 100 µM
- GI50 (OVCAR-4): > 100 µM
- GI50 (OVCAR-3): > 100 µM
- GI50 (UACC-62): 60.3 µM
- GI50 (SK-MEL-5): 48 µM
- GI50 (SK-MEL-2): > 100 µM
- GI50 (SK-MEL-28): > 100 µM
- GI50 [3]: 61.1 µM
- TGI [3]: > 100 µM
- GI50 [4]: 87.5 µM
- TGI [4]: > 100 µM
- GI50 [5]: 87.2 µM
- TGI [5]: > 100 µM
- GI50 [6]: 74.6 µM
- TGI [6]: > 100 µM
- GI50 [7]: 80.9 µM
- TGI [7]: > 100 µM
- GI50 [8]: 66.8 µM
- TGI [8]: 98.2 µM
- GI50 [9]: 55 µM
- TGI [9]: 90.9 µM
- Activity (SF-268): <=32%
- GI50 (BT-549): 47.5 µM
- GI50 (T47D): > 100 µM
- GI50 (SNB-19): > 100 µM
- GI50 (SF-539): > 100 µM
- GI50 (SW-620): 94.2 µM
- GI50 (KM12): 32.1 µM
- GI50 (HCT-15): 67.4 µM
- GI50 (HT-29): 82 µM
- GI50 (HCC 2998): 32.8 µM
- GI50 (NCI-H522): 61.9 µM
- GI50 (COLO 205): > 100 µM
- GI50 (NCI-H23): 68 µM
- GI50 [10]: 31.4 µM
- GI50 (NCI-H460): 95.1 µM
- GI50 (EKVX): 35.5 µM
- GI50 (RPMI-8226): 51 µM
- Activity (MCF7 [11]): <=32%

Compound: O=C1CCS/C(=N\S(=O)(=O)c2ccc(N3N=C4c5ccccc5CC4C3c3cccs3)cc2)N1c1ccccc1 (stereo unspecified)
- GI50 (MDA-MB-435): 38.7 µM
- GI50 (M14): 15.3 µM
- GI50 (U-251): 14.4 µM
- GI50 (MCF7 [1]): 29.1 µM
- GI50 (MDA-MB-231): 52.1 µM
- GI50 (DU-145): > 100 µM
- GI50 (UO-31): > 100 µM
- GI50 (PC-3): 75 µM
- GI50 (RXF 393): 98.2 µM
- GI50 (CAKI-1): 73 µM
- GI50 (ACHN): 42.5 µM
- GI50 (786-0): 64.2 µM
- GI50 [2]: > 100 µM
- GI50 (SK-OV-3): 32.9 µM
- GI50 (OVCAR-4): 49.3 µM
- GI50 (IGROV-1): 17.4 µM
- GI50 (OVCAR-3): 25.9 µM
- GI50 (UACC-62): 16.7 µM
- GI50 (SK-MEL-5): 14.1 µM
- GI50 (SK-MEL-2): 28 µM
- GI50 (SK-MEL-28): 42.1 µM
- GI50 [3]: 61.1 µM
- TGI [3]: 56.2 µM
- GI50 [5]: 27.8 µM
- TGI [5]: 55.4 µM
- GI50 [6]: 22 µM
- TGI [6]: 33.8 µM
- GI50 [7]: 34.1 µM
- TGI [7]: 54.1 µM
- GI50 [8]: 29.6 µM
- TGI [8]: 47.4 µM
- GI50 [9]: 48.3 µM
- TGI [9]: 93.9 µM
- Activity (SF-268): <=32%
- GI50 (BT-549): 47.5 µM
- GI50 (T47D): > 100 µM
- GI50 (SNB-19): 22.3 µM
- GI50 (SF-539): 21.8 µM
- GI50 (SW-620): 24 µM
- GI50 (KM12): 17.1 µM
- GI50 (HCT-15): 15.9 µM
- GI50 (HT-29): 37 µM
- GI50 (HCC 2998): 17.9 µM
- GI50 (NCI-H522): 15.9 µM
- GI50 (COLO 205): 36.8 µM
- GI50 (NCI-H23): 16.7 µM
- GI50 [10]: 12.8 µM
- GI50 (NCI-H460): > 100 µM
- GI50 (EKVX): 25.7 µM
- GI50 (RPMI-8226): 18.1 µM
- Activity (MCF7 [11]): <=32%

Compound: O=C1CS/C(=N\S(=O)(=O)c2ccc(N3N=C4c5ccccc5CC4C3c3cccs3)cc2)N(c2ccccc2)C1 (stereo unspecified)
- GI50 (MDA-MB-435): 29.5 µM
- GI50 (M14): 39.1 µM
- GI50 (U-251): 28 µM
- GI50 (MCF7 [1]): 88.8 µM
- GI50 (MDA-MB-231): 21.4 µM
- GI50 (DU-145): 30.7 µM
- GI50 (UO-31): 69.3 µM
- GI50 (PC-3): 45 µM
- GI50 (RXF 393): 41 µM
- GI50 (CAKI-1): 74.5 µM
- GI50 (ACHN): 22.1 µM
- GI50 (786-0): 22.1 µM
- GI50 [2]: > 100 µM
- GI50 (SK-OV-3): > 100 µM
- GI50 (OVCAR-4): > 100 µM
- GI50 (IGROV-1): 19.5 µM
- GI50 (OVCAR-3): > 100 µM
- GI50 (UACC-62): 16.1 µM
- GI50 (SK-MEL-5): 38.2 µM
- GI50 (SK-MEL-2): 60.2 µM
- GI50 (SK-MEL-28): > 100 µM
- GI50 [3]: 50.1 µM
- TGI [3]: 95.5 µM
- GI50 [4]: 37.8 µM
- TGI [4]: > 100 µM
- GI50 [5]: 63.2 µM
- TGI [5]: > 100 µM
- GI50 [6]: 45.3 µM
- TGI [6]: 84.3 µM
- GI50 [7]: 57.4 µM
- TGI [7]: 99.7 µM
- GI50 [8]: 41.2 µM
- TGI [8]: 79 µM
- GI50 [9]: 19.5 µM
- TGI [9]: 82.1 µM
- Activity (SF-268): <=32%
- GI50 (BT-549): 21.4 µM
- GI50 (T47D): 69.2 µM
- GI50 (SNB-19): 55.7 µM
- GI50 (SF-539): 27.8 µM
- GI50 (SW-620): 45.2 µM
- GI50 (KM12): 28.4 µM
- GI50 (HCT-15): 35.5 µM
- GI50 (HT-29): 61 µM
- GI50 (HCC 2998): 20.5 µM
- GI50 (NCI-H522): 23.8 µM
- GI50 (COLO 205): 57.2 µM
- GI50 (NCI-H23): 24.2 µM
- GI50 [10]: 16.9 µM
- GI50 (NCI-H460): > 100 µM
- GI50 (EKVX): 39.5 µM
- GI50 (RPMI-8226): 31 µM
- Activity (MCF7 [11]): <=32%
